Earlier results on one compound are cited in US20190008832A1, “COMPOSITIONS FOR THE TREATMENT OF PRESBYOPIA” (priority 2015, published 2019).

The data set relates to eye.

As for `CC[C@@H]1C(=O)OC[C@@H]1Cc1cncn1C` [pilocarpine], where the note is “WO2008/075149 compositions: pilocarpine HCl 1% and diclofenac sodium 0.5%”, the “Side effects in some patients” value is “causes diarrhea and dyspepsia”. The “Percentage of pilocarpine necessary to be effective in the treatment of presbyopia” value (single active ingredient in a topical composition) is given as “greater than 0.5 % by weight”. The “Tolerability of pilocarpine at percentages higher than 0.5% by weight” value (topical, reddening of the eye, ocular and forehead pain, headaches) is reported as “not tolerated”.
